From PubChem BioAssay AID330 (DTP/NCI, 2004)
“And” between values parts separate entries of the source, which are not always exact repeats. Identical values can stand only once. Toxic doses and inconclusive results are not listed. Peptide text beside a SMILES is read from it. * marks the point of attachment. Cbz = O=C(OCc1ccccc1)*

Test system: P388 leukemia ip, CD2F1 mice, survival T/C
Test: NCI In Vivo Anticancer Drug Screen. Data for tumor model P388 Leukemia (intraperitoneal) in CD2F1 (CDF1) mice
Details: endpoint: median survival time, higher = longer survival
How it was run: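 Mice carrying the transplanted tumor received test compound or vehicle. Survival was recorded in each group, and the value is the treated-group measurement divided by that of the vehicle-treated control group.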

[1] = dose: 50.0 mg/kg/injection, schedule: Q01DX005 (ip), vehicle: Klucel (hydroxypropylcellulose) (HPC)
[2] = dose: 100.0 mg/kg/injection, schedule: Q01DX005 (ip), vehicle: Klucel (hydroxypropylcellulose) (HPC)
[3] = dose: 200.0 mg/kg/injection, schedule: Q01DX005 (ip), vehicle: Klucel (hydroxypropylcellulose) (HPC)
[4] = dose: 50.0 mg/kg/injection, schedule: Q01DX009 (ip), vehicle: saline
[5] = dose: 100.0 mg/kg/injection, schedule: Q01DX009 (ip), vehicle: saline
[6] = dose: 200.0 mg/kg/injection, schedule: Q01DX009 (ip), vehicle: saline
[7] = dose: 100.0 mg/kg/injection, schedule: Q01DX009 (ip), vehicle: saline with Tween-80
[8] = dose: 200.0 mg/kg/injection, schedule: Q01DX009 (ip), vehicle: saline with Tween-80
[9] = dose: 60.0 mg/kg/injection, schedule: Q01DX005 (ip), vehicle: saline with Tween-80
[10] = dose: 120.0 mg/kg/injection, schedule: Q01DX005 (ip), vehicle: saline with Tween-80
[11] = dose: 240.0 mg/kg/injection, schedule: Q01DX005 (ip), vehicle: saline with Tween-80
[12] = dose: 50.0 mg/kg/injection, schedule: Q01DX009 (ip), vehicle: saline with Tween-80
[13] = dose: 100.0 mg/kg/injection, schedule: Q04DX002 (ip), vehicle: saline with Tween-80
[14] = dose: 100.0 mg/kg/injection, schedule: Q01DX001 (ip), vehicle: saline with Tween-80
[15] = dose: 200.0 mg/kg/injection, schedule: Q01DX001 (ip), vehicle: saline with Tween-80
[16] = dose: 400.0 mg/kg/injection, schedule: Q01DX001 (ip), vehicle: saline with Tween-80

CC1=NN(c2ccccc2)[As]2ON=C(c3ccc(Cl)cc3)C12 (configuration not stated) was tested, and the T/C [1] was 102 % of control, the T/C [2] was 103 % of control and the T/C [3] was 108 % of control.
With COCCc1nn[nH]n1 the T/C [4] was 110 % of control, the T/C [5] was 115 % of control and the T/C [6] was 109 % of control.
In the case of CC1(CCOCc2ccccc2)NC(=O)NC1=O (configuration not stated), the T/C [7] is reported as 90 % of control, the T/C [8] is reported as 100 % of control and the T/C (dose: 400.0 mg/kg/injection, schedule: Q01DX009 (ip), vehicle: saline with Tween-80) is reported as 100 % of control.
CCN(CC)P(=S)(c1ccccc1CCP(=S)(c1ccccc1)c1ccccc1)N(CC)CC was tested, and the T/C [9] was 92 % of control, the T/C [10] was 93 % of control and the T/C [11] was 91 % of control.
ClCc1nnc2n1-c1ccc(Cl)cc1SC2 was tested, and the T/C [9] was 106 % of control and the T/C [10] was 107 % of control.
In the case of Cc1oc2c(c(C)nn2-c2ccccc2)c(=O)c1Cl, the T/C [1] is reported as 92 % of control, the T/C [2] is reported as 106 % of control and the T/C [3] is reported as 108 % of control.
For O=C(/C=C/c1ccc2c(c1)OCO2)C1CC1, the T/C [12] was 92 % of control, the T/C [7] was 92 % of control and the T/C [8] was 96 % of control.
In the case of CCOC(=O)N1c2ccccc2N(C(=O)OCC)C1C#N, the T/C [9] is reported as 97 % of control, the T/C [10] is reported as 96 % of control and the T/C [11] is reported as 87 % of control.
In the case of Nc1cc(N)c(N=Nc2cccc3c(S(=O)(=O)O)cccc23)cc1N=Nc1cc([N+](=O)[O-])ccc1O, the T/C [4] is reported as 109 % of control, the T/C [5] is reported as 109 % of control and the T/C [6] is reported as 96 % of control.
For O=C(Nc1ccccc1F)N(CCO)C1CCCCC1, the T/C [9] was 93 % of control, the T/C [10] was 93 % of control and the T/C [11] was 98 % of control.
With C/C=C1/CN2C3C[C@@]45c6cc(OC)c(OC)cc6NC4(O3)C2CC1C5C(=O)OC (some centres not stated) the T/C (dose: 5.25 mg/kg/injection, schedule: Q01DX005 (ip), vehicle: Klucel (hydroxypropylcellulose) (HPC)) was 102 % of control, the T/C (dose: 10.5 mg/kg/injection, schedule: Q01DX005 (ip), vehicle: Klucel (hydroxypropylcellulose) (HPC)) was 102 % of control and the T/C (dose: 21.0 mg/kg/injection, schedule: Q01DX005 (ip), vehicle: Klucel (hydroxypropylcellulose) (HPC)) was 98 % of control. For the same compound, the T/C (dose: 42.0 mg/kg/injection, schedule: Q01DX005 (ip), vehicle: Klucel (hydroxypropylcellulose) (HPC)) was 99 % of control.
For CN1CCN(C)C1=Nc1ccccc1/C=C/C=C1C(=O)N(C)C(=O)N(C)C1=O, the T/C (dose: 25.0 mg/kg/injection, schedule: Q04DX002 (ip), vehicle: saline with Tween-80) was 114 % of control, the T/C (dose: 50.0 mg/kg/injection, schedule: Q04DX002 (ip), vehicle: saline with Tween-80) was 106 % of control and the T/C [13] was 123 % of control.
With Cn1c(C(O)CCl)nc2c3ccccc3ccc21 (configuration not stated) the T/C (dose: 25.0 mg/kg/injection, schedule: Q01DX009 (ip), vehicle: saline) was 109 % of control, the T/C [4] was 106 % of control and the T/C [5] was 109 % of control and 92 % of control.
CN1CCC2(CC1)COCc1ccccc12 was tested, and the T/C (dose: 25.0 mg/kg/injection, schedule: Q01DX009 (ip), vehicle: saline with Tween-80) was 101 % of control and the T/C [12] was 104 % of control.
For C/C(=N\NC(=S)/N=c1\sccn1Cc1ccccc1)c1ccccn1, the T/C (dose: 6.25 mg/kg/injection, schedule: Q01DX005 (ip), vehicle: saline with Tween-80) was 117 % of control and 123 % of control.
In the case of CC(C)C(NC(=O)C(Cc1cnc[nH]1)NC(=O)OCc1ccccc1)C(=O)O (stereo not drawn) (Cbz-His-Val-OH; configuration not given here), the T/C [1] is reported as 101 % of control, the T/C [2] is reported as 96 % of control and the T/C [3] is reported as 100 % of control.
For Cc1cc2oc(=O)c3c(c2c(O)c1CN1CCCC1)CCCC3, the T/C (dose: 16.0 mg/kg/injection, schedule: Q01DX009 (ip), vehicle: Klucel (hydroxypropylcellulose) (HPC)) was 97 % of control, the T/C (dose: 32.0 mg/kg/injection, schedule: Q01DX009 (ip), vehicle: Klucel (hydroxypropylcellulose) (HPC)) was 101 % of control and the T/C (dose: 64.0 mg/kg/injection, schedule: Q01DX009 (ip), vehicle: Klucel (hydroxypropylcellulose) (HPC)) was 103 % of control. For the same compound, the T/C (dose: 128.0 mg/kg/injection, schedule: Q01DX009 (ip), vehicle: Klucel (hydroxypropylcellulose) (HPC)) was 97 % of control.
COc1cc2c(cc1OC)C1C(CC(=O)O)CCCN1CC2 (configuration not stated) was tested, and the T/C [1] was 112 % of control, the T/C [2] was 100 % of control and the T/C [3] was 100 % of control.
With CN1c2ccc(C3N(C(=O)C(F)(F)F)C=CN3C(=O)C(F)(F)F)cc2Sc2cc(C3N(C(=O)C(F)(F)F)C=CN3C(=O)C(F)(F)F)ccc21 the T/C [9] was 91 % of control, the T/C [10] was 89 % of control and the T/C [11] was 91 % of control.
C[CH2][Sn]([CH2]C)([O]S(=O)(=O)CC12CCC(CC1=O)C2(C)C)[O]S(=O)(=O)CC12CCC(CC1=O)C2(C)C was tested, and the T/C (dose: 1.56 mg/kg/injection, schedule: Q01DX009 (ip), vehicle: saline) was 102 % of control and the T/C (dose: 3.12 mg/kg/injection, schedule: Q01DX009 (ip), vehicle: saline) was 119 % of control.
NNC(=O)c1ccccc1O was tested, and the T/C [12] was 100 % of control and the T/C [7] was 100 % of control.
In the case of Cc1cc(C)c(O)c(C(c2ccccc2)c2cc(C)cc(C)c2O)c1, the T/C [12] is reported as 99 % of control, the T/C [7] is reported as 118 % of control and the T/C [8] is reported as 115 % of control.
With COc1cc(NCC(C)(O)CN(CC(C)C)C(C)C)c2ncccc2c1 (configuration not stated) the T/C (dose: 12.5 mg/kg/injection, schedule: Q01DX005 (ip), vehicle: saline) was 97 % of control, the T/C (dose: 25.0 mg/kg/injection, schedule: Q01DX005 (ip), vehicle: saline) was 103 % of control and the T/C (dose: 50.0 mg/kg/injection, schedule: Q01DX005 (ip), vehicle: saline) was 106 % of control and 109 % of control.
With COc1ccc2c(c1O)C13CCN(C)[C@@H](C2)C12CC2/C(=N/O)[C@H]3OC(C)=O (some centres not stated) the T/C [1] was 92 % of control and the T/C [2] was 97 % of control.
CCC(c1ccc(OC)cc1)C(NC(=S)NCc1ccccc1)c1ccc(OC)cc1 (configuration not stated) was tested, and the T/C [13] was 94 % of control and the T/C (dose: 200.0 mg/kg/injection, schedule: Q04DX002 (ip), vehicle: saline with Tween-80) was 91 % of control.
For Cc1ccc(Cl)c(C(O)(C(F)(F)F)C(F)(F)F)c1, the T/C (dose: 100.0 mg/kg/injection, schedule: Q01DX001 (ip), vehicle: other) was 95 % of control, the T/C [14] was 108 % of control and the T/C (dose: 200.0 mg/kg/injection, schedule: Q01DX001 (ip), vehicle: other) was 92 % of control. For the same compound, the T/C [15] was 108 % of control and the T/C [16] was 93 % of control.
[O-]c1on[n+](-c2ccccc2-n2cccn2)c1-c1ccccc1 was tested, and the T/C [14] was 90 % of control, the T/C [15] was 91 % of control and the T/C [16] was 90 % of control.
